Here are results for one compound from US8436014B2, “Solid forms of N-(4-(7-azabicyclo[2.2.1]heptan-7-yl)-2-(trifluorormethyl)phenyl)-4-oxo-5-(trifluoromethyl)-1,4-dihyroquinoline-3-carboxamide” (Vertex Pharmaceutical Incorporated, priority 2008, dated 2013).

The target of this experiment is T1, ΔF508-CFTR (Homo sapiens, UniProt P13569, DEL508-508).
T1 construct: expressed in transfected cells
As to the kind of experiment: Membrane potential optical assay for ΔF508-CFTR potentiation (FLIPR III, voltage sensing dyes). It is filed as cell-based. To be noted: assay not named in the result sentence. An excerpt:
Membrane Potential Optical Methods for Assaying ΔF508-CFTR Modulation Properties of Compounds
The assay utilizes fluorescent voltage sensing dyes to measure changes in membrane potential using a fluorescent plate reader (e.g., FLIPR III, Molecular Devices, Inc.) as a readout for increase in functional ΔF508-CFTR in NIH 3T3 cells. The driving force for the response is the creation of a chloride ion gradient in conjunction with channel activation by a single liquid addition step after the cells have previously been treated with compounds and subsequently loaded with a voltage sensing dye.
To identify potentiators of ΔF508-CFTR, a double-addition HTS assay format was developed. This HTS assay utilizes fluorescent voltage sensing dyes to measure changes in membrane potential on the FLIPR III as a measurement for increase in gating (conductance) of ΔF508 CFTR in temperature-corrected ΔF508 CFTR NIH 3T3 cells. The driving force for the response is a Cl− ion gradient in conjunction with channel activation with forskolin in a single liquid addition step using a fluoresecent plate reader such as FLIPR III after the cells have previously been treated with potentiator compounds (or DMSO vehicle control) and subsequently loaded with a redistribution dye.
Solutions • Bath Solution #1: (in mM) NaCl 160, KCl 4.5, CaCl2 2, MgCl2 1, HEPES 10, pH 7.4 with NaOH. […]

Bounds are passed on as bounds.

T1 sequence (P13569 with tags, fused parts or gaps DEL508-508): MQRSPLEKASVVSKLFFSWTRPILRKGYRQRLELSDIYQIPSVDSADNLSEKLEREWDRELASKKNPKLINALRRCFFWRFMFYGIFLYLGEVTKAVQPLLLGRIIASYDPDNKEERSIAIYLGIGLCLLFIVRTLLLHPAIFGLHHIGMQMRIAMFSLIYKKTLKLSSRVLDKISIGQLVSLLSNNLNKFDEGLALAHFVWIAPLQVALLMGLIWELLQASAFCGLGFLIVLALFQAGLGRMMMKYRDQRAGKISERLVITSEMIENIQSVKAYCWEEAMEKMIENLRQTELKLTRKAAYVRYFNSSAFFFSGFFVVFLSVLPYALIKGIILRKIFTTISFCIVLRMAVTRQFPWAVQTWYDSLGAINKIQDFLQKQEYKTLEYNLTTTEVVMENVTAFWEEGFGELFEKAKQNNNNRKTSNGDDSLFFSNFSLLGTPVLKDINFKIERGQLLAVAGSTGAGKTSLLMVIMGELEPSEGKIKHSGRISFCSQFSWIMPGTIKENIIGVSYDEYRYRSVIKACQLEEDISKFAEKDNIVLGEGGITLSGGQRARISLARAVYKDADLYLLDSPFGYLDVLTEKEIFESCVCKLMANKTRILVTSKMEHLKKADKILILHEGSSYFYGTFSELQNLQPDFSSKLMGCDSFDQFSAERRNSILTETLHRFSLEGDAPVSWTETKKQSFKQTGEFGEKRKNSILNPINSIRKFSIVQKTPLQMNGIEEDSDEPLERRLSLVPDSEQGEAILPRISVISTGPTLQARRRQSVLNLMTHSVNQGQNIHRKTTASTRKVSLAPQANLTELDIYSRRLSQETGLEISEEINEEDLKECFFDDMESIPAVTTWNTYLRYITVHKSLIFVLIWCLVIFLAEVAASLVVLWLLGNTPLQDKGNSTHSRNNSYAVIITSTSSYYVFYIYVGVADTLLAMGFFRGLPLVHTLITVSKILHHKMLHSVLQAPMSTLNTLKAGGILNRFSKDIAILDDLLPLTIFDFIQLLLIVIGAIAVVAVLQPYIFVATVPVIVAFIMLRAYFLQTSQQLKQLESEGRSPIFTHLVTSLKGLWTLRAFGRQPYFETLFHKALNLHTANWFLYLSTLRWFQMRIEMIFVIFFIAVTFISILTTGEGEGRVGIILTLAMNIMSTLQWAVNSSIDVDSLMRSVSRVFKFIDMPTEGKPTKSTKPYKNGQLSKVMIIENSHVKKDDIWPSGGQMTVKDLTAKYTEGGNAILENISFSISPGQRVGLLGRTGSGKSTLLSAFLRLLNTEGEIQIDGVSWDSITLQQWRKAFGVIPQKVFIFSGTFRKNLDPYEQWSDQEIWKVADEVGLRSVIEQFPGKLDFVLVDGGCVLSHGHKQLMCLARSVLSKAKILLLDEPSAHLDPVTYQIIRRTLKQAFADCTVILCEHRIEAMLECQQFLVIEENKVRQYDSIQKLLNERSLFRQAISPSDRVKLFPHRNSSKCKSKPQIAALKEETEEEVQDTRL

As a reminder, the EC50 is the concentration at which the effect is half-maximal. For `O=C(Nc1ccc(N2C3CCC2CC3)cc1C(F)(F)F)c1c[nH]c2cccc(C(F)(F)F)c2c1=O` [Compound 1 Form A, N-(4-(7-azabicyclo[2.2.1]heptan-7-yl)-2-(trifluoromethyl)phenyl)-4-oxo-5-(trifluoromethyl)-1,4-dihydroquinoline-3-carboxamide], the EC50 is less than 2000 nM.
